# Earlier results as cited in patent publication US20080146444A1, “Method and compositions for improving plant growth” (Polymer Ventures, Inc., priority 2006, published 2008).
# Columns and labels:
# Xylella fastidiosa = settings: 62.5 ppm
# cucumber seed radicle = settings: levels as low as 7-174 ppm (0.00002 M to 0.0005 M)
# plant = settings: applied at 14 ppm to 1400 ppm (0.1-10 millimolar)
smiles,measurement,setting,value
CC(C)=CCCC(C)=CC=O [citral],kill of Xylella fastidiosa,Xylella fastidiosa,incomplete kill
CC(C)C1CCC(C)(O)C([N+](C)(C)C2CCCC2)C1.[Br-] (stereo not shown) [cyclopentyl dimethyl (1-hydroxy-p-menth-2-yl)ammonium bromide],cucumber seed radicle growth,cucumber seed radicle,inhibited
C=C(C)[C@H]1CC=C(C)CC1 [limonene],plant primary root growth,plant,no improvement
same,seed germination,plant,no improvement
